Source: article PMC9499365, “Stereoselective Synthesis and Application of Gibberellic Acid-Derived Aminodiols” (International Journal of Molecular Sciences, 2022)

Legend:
[1] = system: HeLa cells (cervical cancer); test: MTT antiproliferative assay, HeLa; assay type: cell-based, human; settings: 72 h; for inhibition at 10 µM / inhibition at 30 µM: Homo sapiens, read-out: Growth inhibition (%) ± SEM
Experimental: (§1) The in vitro antiproliferative activities of the synthesized aminodiols 4–38 against a panel of different human cancer cell lines of gynecological origin, including cervical (SiHA and HeLa), breast (MCF7 and MDA-MB-231), and ovary (A2780) cancers were assayed by the MTT method. […] Cisplatin, a clinically applied anticancer agent, was used as a reference compound and the results are summarized in Figure 3 and Table S1 in Supporting Information. […] On the other hand, none of the prepared azole derivatives exerted relevant activity.
(§2) The growth-inhibitory effects of the gibberellic acid-based aminodiol derivatives were determined by a standard MTT (3-(4,5-dimethylthiazol-2-yl)-2,5-diphenyltetrazolium bromide) assay on a panel containing five cell lines, including Hela and Siha (cervical cancers); MDA-MB-231 and MCF-7 (breast cancers); and A2780 ovarian cancer cells. The most promising agents were additionally tested against NIH/3T3 mouse embryo fibroblast cells. All cell lines were purchased from the European Collection of Cell Cultures (Salisbury, UK) except SiHa, which was obtained from the American Tissue Culture Collection (Manassas, VA, USA). The cells were maintained in minimal essential medium supplemented with 10% fetal bovine serum, 1% non-essential amino acids, and 1% penicillin-streptomycin at 37 °C in a humidified atmosphere containing 5% CO2. All media and supplements were obtained from Lonza Group Ltd., (Basel, Switzerland). Cancer cells were seeded into 96-well plates (5000 cells/well), after an overnight incubation the test compound was added in 2 different concentrations (10 µM and 30 µM) and incubated for another 72 h under cell-culturing conditions. Then, 20 μL of 5 mg/mL MTT solution was added to each well and incubated for a further 4 h. The medium was removed, and the precipitated formazan crystals were dissolved in DMSO during 60 min of shaking at 37 °C. As the final step, the absorbance was measured at 545 nm by using a microplate reader (SPECTROStar Nano, BMG Labtech, Offenburg, Germany). Untreated cells were included as controls. […] These agents were additionally tested against NIH/3T3 fibroblasts to obtain results about their cancer selectivity. Two independent experiments were performed with five wells for each condition. Cisplatin (Ebewe GmbH, Unterach, Austria), a clinically used anticancer agent, was used as a positive control. Calculations were performed utilizing the GraphPad Prism 5.01 software (GraphPad Software Inc., San Diego, CA, USA).

[2] = system: SiHa cells (cervical cancer); test: MTT antiproliferative assay, SiHa; assay type: cell-based, human; settings: 72 h; for inhibition at 10 µM / inhibition at 30 µM: Homo sapiens, read-out: Growth inhibition (%) ± SEM
Experimental: as §1, §2

[3] = system: MDA-MB-231 cells (breast cancer); test: MTT antiproliferative assay, MDA-MB-231; assay type: cell-based, human; settings: for Growth inhibition (%) ± SEM / inhibition at 10 µM / inhibition at 30 µM: 72 h; for inhibition at 10 µM / inhibition at 30 µM: Homo sapiens, read-out: Growth inhibition (%) ± SEM
Experimental: as §1, §2

[4] = system: A2780 ovarian cancer cells; test: MTT antiproliferative assay, A2780; assay type: cell-based, human; settings: for Growth inhibition (%) ± SEM / inhibition at 10 µM / inhibition at 30 µM: 72 h; for inhibition at 10 µM / inhibition at 30 µM: Homo sapiens, read-out: Growth inhibition (%) ± SEM
Experimental: as §1, §2

[5] = system: NIH/3T3 mouse embryo fibroblast cells; test: MTT assay on non-cancerous fibroblasts (cancer selectivity); assay type: cell-based; settings: for Growth inhibition (%) ± SEM: 72 h
Experimental: as §1, §2

[6] = DPPH free radical scavenging assay
Experimental: As a consequence, in vitro antioxidant activities of selected N-aliphatic- and N-aryl-substituted aminodiols were determined by 1,1-diphenyl-2-picrylhydrazyl (DPPH) assay.
The antioxidant effects of the aminodiol derivatives were tested on 1,1-diphenyl-2-picrylhydrazyl (DPPH) radicals according to Brand-Williams (1995) [55] and Sánchez-Moreno (2002) [56], with some modifications. […] After a 30 min incubation period at room temperature (25 °C) the absorbances were measured at 517 nm by a microplate reader (SPECTROStar Nano, BMG Labtech, Offenburg, Germany). Trolox (3,4-Dihydro-6-hydroxy-2,5,7,8-tetramethyl-2H-1-benzopyran-2-carboxylic acid) was used as a positive control. All measurements were performed in duplicate with 5 parallels.

Row | Compound | melting point | inhibition at 10 µM ([1]; 10 μM) | inhibition at 30 µM ([1]; 30 μM) | inhibition at 10 µM ([2]; 10 μM) | inhibition at 30 µM ([2]; 30 μM) | inhibition at 10 µM ([3]; MDA-MB-231, 10 μM) | inhibition at 30 µM ([3]; MDA-MB-231, 30 μM) | inhibition at 10 µM ([4]; A2780, 10 μM) | inhibition at 30 µM ([4]; A2780, 30 μM) | other results
1 | N.N.[Cl][Pt][Cl] [Cisplatin, reference compound] | – | – | – | – | – | – | – | – | – | Growth inhibition (%) ± SEM ([1]; 10 μM): 42.61 ± 2.33%; Growth inhibition (%) ± SEM ([1]; 30 μM): 99.93 ± 0.26%; IC50 [1]: 12.4 µM; Growth inhibition (%) ± SEM ([2]; 10 μM): 88.64 ± 0.50%; Growth inhibition (%) ± SEM ([2]; 30 μM): 90.18 ± 1.78%; IC50 [2]: 7.84 µM; Growth inhibition (%) ± SEM ([3]; MDA-MB-231, 10 μM): 67.51 ± 1.01%; Growth inhibition (%) ± SEM ([3]; MDA-MB-231, 30 μM): 87.75 ± 1.10%; IC50 ([3]; MDA-MB-231, 72 h): 3.74 µM; Growth inhibition (%) ± SEM ([4]; A2780, 10 μM): 83.57 ± 1.21%; Growth inhibition (%) ± SEM ([4]; A2780, 30 μM): 95.02 ± 0.28%; IC50 ([4]; A2780, 72 h): 1.3 µM; Growth inhibition (%) ± SEM ([5]; NIH/3T3, 10 μM): 73.88 ± 1.63%; Growth inhibition (%) ± SEM ([5]; NIH/3T3, 30 μM): 97.10 ± 0.15%; IC50 ([5]; NIH/3T3, 72 h): 5.49 µM
2 | CCOC(=O)[C@H]1c2c(C)cccc2[C@H]2CC[C@]3(O)C[C@@]21C[C@]3(O)CNCc1ccc(OC)cc1 [Compound 11, Ethyl (4bS,7S,8S,9aR,10R)-7,8-dihydroxy-8-(((4-methoxybenzyl)amino)methyl)-1-methyl-4b,6,7,8,9,10-hexahydro-5H-7,9a-methanobenzo[a]azulene-10-carboxylate] | 224 to 225 °C | < 20% | 60.8 ± 2.44% | 30.7 ± 0.82% | 53.7 ± 0.76% | < 20% | 78.7 ± 1.47% | 31.7 ± 2.82% | 53.4 ± 1.68% | –
3 | CCOC(=O)[C@H]1c2c(C)cccc2[C@H]2CC[C@]3(O)C[C@@]21C[C@]3(O)CNCc1cccc2ccccc12 [Compound 15, Ethyl (4bS,7S,8S,9aR,10R)-7,8-dihydroxy-1-methyl-8-(((naphthalen-1-ylmethyl)amino)methyl)-4b,6,7,8,9,10-hexahydro-5H-7,9a-methanobenzo[a]azulene-10-carboxylate] | 71 to 74 °C | 28.2 ± 0.88% | 96.7 ± 1.54% | 28.61 ± 0.15% | 97.95 ± 0.63% | < 20% | 95.96 ± 0.69% | 21.9 ± 1.5% | 95.48 ± 0.65% | –
4 | CCOC(=O)[C@H]1c2c(C)cccc2[C@H]2CC[C@]3(O)C[C@@]21C[C@]3(O)CN(Cc1ccccc1)Cc1ccccc1 [Compound 17, Ethyl (4bS,7S,8S,9aR,10R)-8-((dibenzylamino)methyl)-7,8-dihydroxy-1-methyl-4b,6,7,8,9,10-hexahydro-5H-7,9a-methanobenzo[a]azulene-10-carboxylate] | 101.4 to 103 °C | 40.8 ± 1.19% | 45.6 ± 1.48% | < 20% | 47.1 ± 1.74% | < 20% | 36.9 ± 1.58% | < 20% | 78.9 ± 1.12% | –
5 | CCOC(=O)[C@H]1c2c(C)cccc2[C@H]2CC[C@]3(O)C[C@@]21CC31CN(Cc2ccccc2)CO1 (stereo partly shown) [Compound 24, Ethyl (4b’S,7’S,9a’R,10’R)-3-benzyl-7’-hydroxy-1’-methyl-4b’,6’,7’,10’-tetrahydro-5’H,9’H-spiro[oxazolidine-5,8’-[7,9a]methanobenzo[a]azulene]-10’-carboxylate] | 125 to 126 °C | < 20% | 53.9 ± 2.21% | < 20% | 31.9 ± 1.28% | < 20% | 42.4 ± 1.46% | < 20% | 34.1 ± 1.77% | –
6 | CCOC(=O)[C@H]1c2c(C)cccc2[C@H]2CC[C@]3(O)C[C@@]21C[C@]3(O)Cn1nnc2ccccc21 [Compound 30, Ethyl (4bS,7S,8S,9aR,10R)-8-((1H-benzo[d][1,2,3]triazol-1-yl)methyl)-7,8-dihydroxy-1-methyl-4b,6,7,8,9,10-hexahydro-5H-7,9a-methanobenzo[a]azulene-10-carboxylate] | – | < 20% | < 20% | < 20% | 29.5 ± 2% | < 20% | < 20% | < 20% | 26.8 ± 3.79% | DPPH scavenging activity ([6]; concentration range 3–100 µM): None of the six molecules elicited considerable activity
7 | Cc1c(C)c2c(c(C)c1O)CCC(C)(C(=O)O)O2 (stereo not shown) [Trolox, 3,4-Dihydro-6-hydroxy-2,5,7,8-tetramethyl-2H-1-benzopyran-2-carboxylic acid, reference compound] | – | – | – | – | – | – | – | – | – | IC50 ([6]; 0.1 mM DPPH, 30 min, 25 °C): 20.2 µM

More lines, main results first:

Row | melting point | Compound | inhibition at 10 µM ([1]; 10 μM) | inhibition at 30 µM ([1]; 30 μM) | inhibition at 10 µM ([2]; 10 μM) | inhibition at 30 µM ([2]; 30 μM) | inhibition at 10 µM ([3]; MDA-MB-231, 10 μM) | inhibition at 30 µM ([3]; MDA-MB-231, 30 μM) | inhibition at 10 µM ([4]; A2780, 10 μM) | inhibition at 30 µM ([4]; A2780, 30 μM) | other results
8 | 101 to 103 °C | CCOC(=O)[C@H]1c2c(C)cccc2[C@H]2CC[C@]3(O)C[C@@]21C[C@]3(O)Cn1ccnc1 [Compound 26, Ethyl (4bS,7S,8S,9aR,10R)-8-((1H-imidazol-1-yl)methyl)-7,8-dihydroxy-1-methyl-4b,6,7,8,9,10-hexahydro-5H-7,9a-methanobenzo[a]azulene-10-carboxylate] | < 20% | < 20% | < 20% | 25.9 ± 2.53% | < 20% | < 20% | < 20% | < 20% | –
9 | 221 to 222 °C | CCOC(=O)[C@H]1c2c(C)cccc2[C@H]2CC[C@]3(O)C[C@@]21C[C@]3(O)Cn1cnc2ccccc21 [Compound 27, Ethyl (4bS,7S,8S,9aR,10R)-8-((1H-benzo[d]imidazol-1-yl)methyl)-7,8-dihydroxy-1-methyl-4b,6,7,8,9,10-hexahydro-5H-7,9a-methanobenzo[a]azulene-10-carboxylate] | < 20% | 45.5 ± 1.87% | 26.2 ± 0.46% | 44.4 ± 1.84% | < 20% | < 20% | < 20% | 28.9 ± 1.27% | –
10 | 122 to 123 °C | CCOC(=O)[C@H]1c2c(C)cccc2[C@H]2CC[C@]3(O)C[C@@]21C[C@]3(O)CNCc1cn(Cc2ccccc2)nn1 [Compound 31, Ethyl (4bS,7S,8S,9aR,10R)-8-((((1-benzyl-1H-1,2,3-triazol-4-yl)methyl)amino)methyl)-7,8-dihydroxy-1-methyl-4b,6,7,8,9,10-hexahydro-5H-7,9a-methanobenzo[a]azulene-10-carboxylate] | < 20% | 40.2 ± 5.59% | < 20% | 42.9 ± 0.84% | < 20% | 50.8 ± 3.01% | < 20% | 41.4 ± 1.13% | –
11 | 56 to 59 °C | CCOC(=O)[C@@H]1c2c(C)cccc2C2CC[C@]3(O)C[C@@]21C[C@]3(O)CN[C@@H](C)c1ccc2ccccc2c1 (stereo partly drawn) [Compound 35, Ethyl (7S,8S,9aR,10S)-7,8-dihydroxy-1-methyl-8-((((S)-1-(naphthalen-2-yl)ethyl)amino)methyl)-4b,6,7,8,9,10-hexahydro-5H-7,9a-methanobenzo[a]azulene-10-carboxylate] | 40.1 ± 1.21% | 95.9 ± 2.21% | 44.6 ± 0.74% | 98.41 ± 0.74% | 29.4 ± 1.66% | 96.81 ± 0.82% | 42.7 ± 2.63% | 95.4 ± 0.48% | –
12 | 61 to 65 °C | CCOC(=O)[C@@H]1c2c(C)cccc2C2CC[C@]3(O)C[C@@]21C[C@]3(O)CNCc1cccc2ccccc12 (stereo partly drawn) [Compound 38, Ethyl (7S,8S,9aR,10S)-7,8-dihydroxy-1-methyl-8-(((naphthalen-1-ylmethyl)amino)methyl)-4b,6,7,8,9,10-hexahydro-5H-7,9a-methanobenzo[a]azulene-10-carboxylate] | 26.9 ± 0.53% | 96.5 ± 1.72% | 27.9 ± 0.93% | 97.63 ± 0.8% | < 20% | 96.17 ± 0.76% | 28.6 ± 2.66% | 95.23 ± 0.66% | –
